Assay results reported in patent publication US10954348B2, “Biocompatible nanoparticle and use thereof” (KYUNGPOOK NATIONAL UNIVERSITY INDUSTRY-ACADEMIC COOPERATION …, priority 2016, dated 2021).
“Also recorded” adds a separate entry of the source.

Experiments:
[1] = format: in vivo; settings: CT26 tumor mice, 200 μg doxorubicin i.v. three times at intervals of two days, over 33 days
[2] = test system: Colorectal cancer mouse tumor models (CT26 tumor model); assay: In vivo tumor growth inhibition; settings: CT26 tumor mice, 200 μg doxorubicin i.v. three times at intervals of two days, over 33 days, versus PBS blank group
Description: Experiments were conducted to compare and investigate the ability of doxorubicin-conjugated dextran-based nanoparticles whether the nanoparticles could be used as a therapeutic agent capable of inhibiting tumor growth. Colorectal cancer mouse tumor models (CT26 tumor model) were used as tumor models in the experiments. 5×10^6 cells were injected into the flank of mice, and after 10 days, the tumors were visually recognized, and the mice were used for the experiments. The experiments were started by dividing the animal models into a blank group treated with PBS, a group treated with free doxorubicin (free DOX), and a group treated with doxorubicin-conjugated PEG-DNP (DOX@PEG-DNP)). The number of mice corresponding to each group was three, and each administration material was administered to the mouse tumor models via intravenous injection three times at intervals of two days. Here, the amounts of doxorubicin administered to the group treated with free doxorubicin and the group treated with doxorubicin-conjugated PEG-DNP (DOX@PEG-DNP) were 200 μg.
The size of tumors and the weight of mice in the tumor model were checked over 33 days, and the measurement results were monitored and compared. […] As time passed, there was a slight difference in body weight among the groups, but this was thought to be due to the difference of tumor size in the respective groups.

COc1cccc2c1C(=O)c1c(O)c3c(c(O)c1C2=O)C[C@@](O)(C(=O)CO)C[C@@H]3O[C@H]1C[C@H](N)[C@H](O)[C@H](C)O1 [free doxorubicin, doxorubicin]
body weight change [1]: the body weight was not rapidly reduced | tumor growth inhibition [2]: the tumor growth rate of only one of three mice was not inhibited; also recorded: surely inhibited the tumor growth rate compared with the blank group
